Consider three molecules from patent publication US10584159B2, “Renilla based biosensors for monitoring biomolecule localization and trafficking in cells” (The Royal Institution for the Advancement of …, priority 2014, dated 2020).

pEC50: −log10 of the molar value.

What all share (format): cell-based
Assay [1] has as its system PLC (β2, β3, γ1, γ2, δ1 isoforms). Kind of assay: Unimolecular DAG sensor BRET, direct PLC activation. Conditions: 5 uM. Here is the method:
(§1) Unimolecular DAG sensor. For FIGS. 22B and C, HEK293SL cells stably expressing hAt1AR (˜50 fmol/mg) were cultured in DMEM supplemented with 10% FBS and 20 μg/ml gentamycin and seeded at a density of 75,000 cells/100 mm dishes and were transiently transfected the next day with 150 ng of construct encoding for the DAG unimolecular sensor, using calcium phosphate method as described previously. 48 h post-transfection, cells were washed and Coel-400a was added to a final concentration of 5 μM and incubated 3 min. […] Data are mean±SD of triplicates of a representative experiment. […] Data are mean±S.E. of six independent experiments. For FIGS. 22D and E, Hek293SL cells were transfected with FuGENE HD, according to Roche's protocol with a ratio of 2:1 fugene:DNA. 10 ng of construct encoding the unimolecular sensor and 400 ng for the receptor (FIGS. 22D, FP and in 2E, GPR14) complemented to 1 ug with ssDNA, were transfected per well of a 6 well plate. 48 h post-transfection, cells were washed, incubated in Tyrode's buffer for 1 h. […] For FIG. 22F, cells were transfected as in FIG. 22D but with just the unimolecular DAG sensor encoding construct. 48 h post-transfection, cells were washed, incubated in Tyrode's buffer for 1 h. […] Cells were then stimulated with 5 μM m-3m3FBS or just vehicle for the indicated time. […] 48 h post-transfection, cells were washed, incubated in Tyrode's buffer for 1 h.
A general note: Bioluminescence resonance energy transfer reports proximity on the nanometre scale.

The next assay deals with T1, hMC4R (P299H) (Homo sapiens, UniProt P32245, P299H).
T1 construct: expressed in transfected cells; host or cells: HEK293
T1 sequence (P32245 whole entry P299H): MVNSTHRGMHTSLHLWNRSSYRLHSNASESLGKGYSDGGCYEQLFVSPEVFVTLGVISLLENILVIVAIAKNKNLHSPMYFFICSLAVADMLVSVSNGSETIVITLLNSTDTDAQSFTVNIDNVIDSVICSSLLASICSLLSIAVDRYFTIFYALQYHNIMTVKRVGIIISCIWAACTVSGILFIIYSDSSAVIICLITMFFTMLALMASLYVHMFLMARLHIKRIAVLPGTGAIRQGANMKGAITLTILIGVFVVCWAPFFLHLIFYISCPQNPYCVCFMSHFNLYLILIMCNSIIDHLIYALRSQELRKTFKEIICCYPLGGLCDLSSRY
Kind of assay: BRET pharmacological chaperone rescue assay (rGFP-CAAX), hMC4R (P299H)-RlucII. Conditions: 10 μM, 16 h. Here is the method:
(§2) BRET assay for evaluation of PC rescue of cell surface expression and functionality (sequestration assay). In FIGS. 12A to 18E, Hek293 cells were transiently transfected using PEI as described in this section. The DNA transfected per well of a 96-well plate is as follow: in FIGS. 12A and 12B, with 2.4 ng of hMC4R-RlucII encoding construct and an increasing quantity of rGFP-CAAX (Kras) up to 9.6 ng for FIGS. 12A and for 12B, rGFP-PB up to 9.6 ng; in FIGS. 13A to 13C with 0.6, 1.2 or 2.4 ng of hMC4R-RlucII and 4.8 ng of rGFP-CAAX (Kras); in FIG. 13D with 2.4 ng of polycistronic rGFP-CAAX(Kras)/MC4R-RlucII construct; in FIG. 13E with 1.2 ng of hV2R-RlucII and 4.8 ng of rGFP-CAAX (Kras); in FIGS. 14A to 16B with 2.4 ng of hMC4R-RlucII and 7.2 ng of rGFP-CAAX (Kras); Hek293 cells stably expressing rGFP-CAAX(Kras) were transfected with 0.6, 1.2 or 2.4 ng of hMC4R-RlucII; in FIG. 17A or 0.6, 1.2 or 2.4 ng of hV2R_Y128S-RlucII; in FIG. 17B; in FIGS. 18A and 18B with 0.6, 1.2 or 2.4 ng of hERG-RlucII and 4.8 ng of rGFP-CAAX (Kras); and in FIGS. 18C-18E with 0.6 ng of hERG-RlucII and 7.2 ng of rGFP-CAAX (Kras). […] For the BRET assay, cells were washed once with PBS and left in Tyrode's buffer. […] BRET values were determined by calculating the ratio of the light emitted by the acceptor over the light emitted by the RlucII.

The target in the next assay is T2, hMC4R (R165Q) (Homo sapiens, UniProt P32245, R165Q).
T2 construct: expressed in transfected cells; host or cells: HEK293
T2 sequence (P32245 whole entry R165Q): as the sequence (P32245 whole entry P299H) above, with R165Q, H299P counted along it
Kind of assay: BRET pharmacological chaperone rescue / sequestration assay (rGFP-CAAX), hMC4R (R165Q)-RlucII. The settings on record: 10 μM, 16 h. Here is the method: as §2

A further assay deals with T3, hMC4R wt (Homo sapiens, UniProt P32245).
T3 construct: expressed in transfected cells; host or cells: HEK293
T3 sequence (P32245 whole entry): as the sequence (P32245 whole entry P299H) above, with H299P counted along it
Kind of assay: BRET pharmacological chaperone rescue / sequestration assay (rGFP-CAAX), hMC4R wt-RlucII. The settings on record: 10 μM, 16 h. Here is the method: as §2

The target of assay [2] is T4, Prostaglandin F receptor (FP) (Homo sapiens, UniProt P43088).
T4 construct: expressed in transfected cells; host or cells: HEK293SL
T4 sequence (P43088 whole entry): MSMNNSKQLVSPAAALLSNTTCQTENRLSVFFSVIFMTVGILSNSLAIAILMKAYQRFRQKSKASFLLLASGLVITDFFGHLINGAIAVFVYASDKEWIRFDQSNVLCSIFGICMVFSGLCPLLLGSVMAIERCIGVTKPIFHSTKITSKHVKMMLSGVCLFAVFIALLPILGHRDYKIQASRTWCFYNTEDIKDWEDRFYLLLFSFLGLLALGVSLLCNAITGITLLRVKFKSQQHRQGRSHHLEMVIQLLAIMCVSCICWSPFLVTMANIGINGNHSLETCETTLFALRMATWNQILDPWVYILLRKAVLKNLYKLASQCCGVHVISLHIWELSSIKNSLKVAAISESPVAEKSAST
Kind of assay: Unimolecular DAG sensor BRET, FP activation. The settings on record: FP-transfected HEK293SL, 1 min stimulation, read-out: EC50, DAG produced at the plasma membrane. Here is the method:
as §1

As for `Cc1cc(C)c(S(=O)(=O)Nc2cccc(C(F)(F)F)c2)c(C)c1` [m-3m3FBS, N-(3-Trifluoromethylphenyl)-2,4,6-trimethylbenzenesulfonamide], in assay [1], the “BRET response of DAG sensor” value was “increase in BRET”. Turning to `CCC(=O)N[C@H](Cc1ccc(Cl)cc1Cl)C(=O)N1CCN(c2ccccc2CNC(C)COC)CC1` (stereo partly drawn) [DCPMP, N-((2R)-3(2,4-dichloroPhenyl)-1-(4-(2-((1-methoxypropan-2-ylamino)methyl)phenyl)piperazin-1-yl)-1-oxopropan-2-yl)propionamide], the entries for the “PC-mediated rescue of cell surface expression” value at hMC4R (P299H), at hMC4R (R165Q) and on hMC4R wt were “not PC-rescued”, “increase in BRET signal” and “increase in BRET signal”, respectively. A word on the pEC50: it is the EC50 on a negative log10 scale, so that one unit is a factor of ten. On to `CCCCC[C@H](O)/C=C/[C@H]1[C@H](O)CC(=O)[C@@H]1C/C=C\CCCC(=O)O` [PGE2, Prostaglandin E2], for which the negative logarithm of the EC50 (pEC50) in assay [2] was 7.05.
